Laboratory results from ChEMBL document CHEMBL3797136, “Insights into the structure-activity relationship of the anticancer compound ZJ-101: A critical role played by the cyclohexene ring” (Bioorg Med Chem Lett, 2016).

Assays:
Format in all cases: functional, cell-based
MDA-MB-231 = assay: Antiproliferative activity against human MDA-MB-231 cells assessed as cell viability by Alamar Blue assay
[1] = Antiproliferative activity against human […] assessed as cell viability by Alamar Blue assay
[2] = Antiproliferative activity against human SF295 cells assessed as cell viability by Alamar Blue assay; conditions: SF-295
RKO = assay: Antiproliferative activity against human RKO cells assessed as cell viability by Alamar Blue assay

| SMILES | IC50 (MDA-MB-231) | IC50 [1] | IC50 [2] | IC50 (RKO) |
| --- | --- | --- | --- | --- |
| CC(=O)N[C@H](C)[C@@H](O)[C@@H](C)[C@@H]1OC(=O)/C=C/C=C(C)\C=C\c2ccccc2/C=C(C)/C=C/[C@H]1C | > 5000 nM | 2200 nM | > 5000 nM | > 5000 nM |
| CC(=O)N[C@H](C)[C@@H](O)[C@@H](C)[C@@H]1OC(=O)/C=C/C=C(C)\C=C\[C@]2(C)CCC=C[C@@H]2/C=C(C)/C=C/[C@H]1C | 42.8 nM | 36.2 nM | 66.1 nM | 154 nM |
